For the data set, the system named is in vivo alkaline comet assay, DNA damage, mouse/rat. In words: In vivo alkaline comet assay, summary data. An excerpt: The comet assay examines the ability of substances to cause DNA damage in cells from a variety of different tissues, such as liver, stomach, lung, or brain.
There are multiple forms of DNA damage, including DNA adducts (addition of a chemical structure to a DNA base), oxidative damage to DNA, and breaks in one or both strands. The comet assay can detect single and double strand breaks, DNA adducts, and DNA crosslinks, as well as breaks along the DNA strand that are produced during the normal processes of DNA repair or replication. Thus, the comet assay provides a snapshot of the balance between DNA damage and DNA repair at the time the tissue was harvested.
The DNA damage detected by the comet assay can resolve in several ways. The damage is most often rapidly and correctly repaired. Alternately, a cell that sustains DNA damage may die without passing the damage on to daughter cells following cell division. However, if the damage is not repaired or is repaired incorrectly, the daughter cells may inherit the damage as mutations or chromosome breaks, which are found in many human diseases including cancer. The outcome of the detected DNA damage is unknown.
The comet assay provides the advantage of being able to look at chemical effects on DNA in tissues other than bone marrow, which is the main source of cells used to examine chemical-induced chromosome damage and mutation induction in animals (see Micronucleus Assay).
Animals (rats or mice) are treated with a test substance once or multiple times, and DNA damage is usually evaluated 3-6 hours after the final treatment.
The animal tissue is rapidly minced in a buffer solution, combined with agarose, and layered onto slides. The slides are placed in a solution that removes the cellular and nuclear membranes and cellular proteins, leaving behind the nuclear DNA. The slides are then incubated in an alkaline solution (pH > 13) to convert alkali-labile sites into strand breaks and allow the DNA to unwind. Next, the slides are subjected to an electrical field in a tank filled with a buffer solution. Broken DNA, having a negative charge, migrates out of the area of the nucleus toward the positively charged anode. This forms a comet-like shape with the nucleus at the "head" and the migrated DNA as the "tail." All steps of the method are performed using ice-cold solutions and buffers. After this process, the DNA is stained with a fluorescent dye and cells are analyzed using Comet Assay IV Imaging Software.
For each cell, DNA migration is analyzed using an automated software system attached to a microscope. The extent of damage is characterized as the percent tail DNA (how much DNA migrated to the tail, compared to the total DNA as a percentage). At least 100 cells per sample are evaluated; current guidelines for the assay recommend analysis of at least 150 cells per sample. The data is statistically analyzed to determine if there is a significant increase in percent tail DNA in chemical-exposed animals compared to the controls (animals not exposed).
Dose-related responses, as well as significant dose groups, are considered during the evaluation of the data. For a positive test, both a dose response and at least one significant dose group are required. If only one of these measures is present, the test is considered to be equivocal. The absence of either condition results in a negative test. The final conclusions for comet assays are determined by considering the results of statistical analyses, reproducibility of any observed effects, and the magnitude of the effects. Ultimately, both biological and statistical significance are considered when reaching a final conclusion.
For more details, please refer to the original protocol: https://ntp.niehs.nih.gov/research/apptoxres/genetic and publication: https://www.ncbi.nlm.nih.gov/pubmed/26212309

Results filed as inconclusive are left out. Activity calls are given as the source filed them. How the calls were made is not given here.

Regarding `CNC(=O)Oc1cccc2ccccc12`, the result was active.
Next, `c1ccoc1`: “active; positive”.
Next, `ClCC1CO1` (centres undefined): “active; positive”.
The result for `CC[C@]1(O)C[C@H]2CN(CCc3c([nH]c4ccccc34)[C@@](C(=O)OC)(c3cc4c(cc3OC)N(C=O)[C@H]3[C@@](O)(C(=O)OC)[C@H](OC(C)=O)[C@]5(CC)C=CCN6CC[C@]43[C@@H]65)C2)C1` reads “active”; that for `C=CC(N)=O`, “active; positive”.
For the molecule `C=CC(=O)NC(C)(C)C`, the outcome was “active; positive”.
As for `CCNC(=O)CC(C)=O`, the outcome was “active; positive”.
The result for `Cc1ccc(N(C)C)cc1` reads “active; negative”; that for `Nc1nc(=O)n([C@@H]2CS[C@H](CO)O2)cc1F`, “active; positive”.
The result for `[O]=[Sb][O][Sb]=[O]` reads “active; positive”; that for `C=CC1(C)OC(=O)N(c2cc(Cl)cc(Cl)c2)C1=O` (centres undefined), “active; positive”; that for `NC(=O)CC(N)=O`, “active; positive”.
`O=C([O-])[O-].O=C([O-])[O-].[OH-].[OH-].[OH-].[OH-].[OH-].[OH-].[Zn+2].[Zn+2].[Zn+2].[Zn+2].[Zn+2]`: the result was active.
For the molecule `CNNC`, the outcome was active.
The result for `CC(=O)CC(C)=O` reads “active; positive”; that for `NC(=O)NO`, “active; positive”; that for `CC(C)c1ccccc1`, “active; positive”.
Next, `CCOS(C)(=O)=O`: “active”.
Next, `OC(CCl)CCl`: “active; positive”.

Values taken from PubChem BioAssay AID2202556 (NIEHS Division of Translational Toxicology (DTT)).
